Data published in PubChem BioAssay (NCI).
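Tested at 5 concentrations; 48 h exposure; 96-well plates; endpoints linearly interpolated, else capped at highest concentration. GI50 is the concentration that inhibits growth by half. TGI: total growth inhibition.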

Key:
Assay in all cases: growth of human tumour cells (NCI), 48 h
786-0 renal = tested on: 786-0 renal
A498 renal = tested on: A498 renal
A549 NSCLC = tested on: A549 NSCLC
ACHN renal = tested on: ACHN renal
BT-549 breast = tested on: BT-549 breast
CAKI-1 renal = tested on: CAKI-1 renal
CCRF-CEM leukemia = tested on: CCRF-CEM leukemia
COLO 205 colon = tested on: COLO 205 colon
DU-145 prostate = tested on: DU-145 prostate
EKVX NSCLC = tested on: EKVX NSCLC
HCC-2998 colon = tested on: HCC-2998 colon
HCT-116 colon = tested on: HCT-116 colon
HCT-15 colon = tested on: HCT-15 colon
HL-60(TB) leukemia = tested on: HL-60(TB) leukemia
HOP-62 NSCLC = tested on: HOP-62 NSCLC
HOP-92 NSCLC = tested on: HOP-92 NSCLC
HS 578T breast = tested on: HS 578T breast
HT29 colon = tested on: HT29 colon
IGROV1 ovarian = tested on: IGROV1 ovarian
K-562 leukemia = tested on: K-562 leukemia
KM12 colon = tested on: KM12 colon
LOX IMVI melanoma = tested on: LOX IMVI melanoma
M14 melanoma = tested on: M14 melanoma
MALME-3M melanoma = tested on: MALME-3M melanoma
MCF7 breast = tested on: MCF7 breast
MDA-MB-231 breast = tested on: MDA-MB-231 breast
MDA-MB-435 = tested on: MDA-MB-435
MOLT-4 leukemia = tested on: MOLT-4 leukemia

## N#CC(C#N)=C/C=C(\Sc1ccc(F)c(Cl)c1)c1ccc(Cl)cc1
786-0 renal
  GI50: 950 nM
  TGI: 2490 nM
A498 renal
  GI50: 16000 nM
  TGI: 32400 nM
A549 NSCLC
  GI50: 3290 nM
  TGI: 12700 nM
ACHN renal
  GI50: 795 nM
  TGI: 3340 nM
BT-549 breast
  GI50: 3090 nM
  TGI: 8840 nM
CAKI-1 renal
  GI50: 1770 nM
  TGI: 12100 nM
CCRF-CEM leukemia
  GI50: 193 nM
  TGI: 539 nM
COLO 205 colon
  GI50: 2580 nM
  TGI: > 21300 nM
DU-145 prostate
  GI50: 1120 nM
  TGI: 6770 nM
EKVX NSCLC
  GI50: 14500 nM
  TGI: 39500 nM
HCC-2998 colon
  GI50: 5710 nM
  TGI: 17800 nM
HCT-116 colon
  GI50: 300 nM
  TGI: 799 nM
HCT-15 colon
  GI50: 601 nM
  TGI: 2010 nM
HL-60(TB) leukemia
  GI50: 317 nM
  TGI: 4480 nM
HOP-62 NSCLC
  GI50: 1520 nM
  TGI: 5780 nM
HOP-92 NSCLC
  GI50: 947 nM
  TGI: 6910 nM
HS 578T breast
  GI50: 4780 nM
  TGI: 43500 nM
HT29 colon
  GI50: 545 nM
  TGI: 2240 nM
IGROV1 ovarian
  GI50: 1090 nM
  TGI: 4290 nM
K-562 leukemia
  GI50: 396 nM
  TGI: 12600 nM
KM12 colon
  GI50: 2740 nM
  TGI: 13100 nM
LOX IMVI melanoma
  GI50: 302 nM
  TGI: 1120 nM
M14 melanoma
  GI50: 807 nM
  TGI: 2530 nM
MALME-3M melanoma
  GI50: 3260 nM
  TGI: 20400 nM
MCF7 breast
  GI50: 1250 nM
  TGI: 26700 nM
MDA-MB-231 breast
  GI50: 671 nM
  TGI: 2020 nM
MDA-MB-435
  GI50: 1250 nM
  TGI: 4290 nM
MOLT-4 leukemia
  GI50: 335 nM
  TGI: 2740 nM
